From US20220354825A1, “PHARMACEUTICAL COMPOSITION FOR PREVENTION OR TREATMENT OF INFLAMMATORY DISEASES COMPRISING NAPHTHOQUINONE DERIVATIVE” (LMITO THERAPEUTICS INC., priority 2019, published 2022)

Tests used:
NQO1 = NQO1 (Homo sapiens, UniProt P15559); test: In vitro NQO1 enzyme activity assay (cytochrome C reduction); assay type: biochemical; conditions: NQO1 2 ng
Protocol: In order to evaluate the enzymatic activities of compounds on NQO1, the experiments were performed as follows:
A compound to measure NQO1 enzyme activity was dissolved in DMSO to prepare a 10 mM stock solution, which was then diluted with DMSO to prepare a working solution at a concentration of 250 μM. For an enzyme reaction solution, 50 μL of 1.54 mM cytochrome C solution was added to 900 μL of 50 mM Tris-HCl (pH 7.5) solution containing 0.14% BSA, and then the prepared working solution at 250 μM was added. After adding 20 μL of 100 ng/ml NQO1 protein, […] solution was added so as to adjust the total volume to 1 mL, and then the change of absorbance was measured at 550 nm for 10 minutes. The change of absorbance was measured at 550 nm for 10 minutes using 1 mL cuvette. The reaction rate was observed through the increase in absorbance as cytochrome C was reduced at 550 nm for 10 minutes, to obtain an absorbance value, and the activity for NQO1 was measured as the reduced amount of cytochrome C (nmol reduced cytochrome C/min/μg NQO1 protein).
Absorption coefficient of Cytochrome C: 21.1 (μmol/mL)-1 cm^−1
Equipment=Cary 100 UV-Vis Spectrophotometer

[1] = system: primary bone marrow-derived macrophages (BMDMs); test: NAD+ measurement in macrophages after LPS/ATP; assay type: cell-based, C57BL/6 mouse; conditions: LPS/ATP + 1, 5, 10 μM compound
Protocol: (§1) The primary bone marrow-derived macrophages (BMDMs) isolated from C57BL/6 mouse were incubated in DMEM medium involving macrophage colony-stimulating factor (M-CSF; R&D Systems, 416-ML) during 3 to 5 days. NAD^+ production and NAD^+/NADH ratio were measured in isolated BMDMs through using NAD/NADH Assay Kit(ab65348) supplied by Abcam company. All assays were performed according to the manufacturer's product manual.
FIGS. 1 to 5 show NAD^+ changes in the macrophage when treated with compounds 6, 16, 17, 22 and 27 respectively (in order from left in the figure: Untreatment, LPS/ATP, LPS/ATP+1 μM compound, LPS/ATP+5 μM compound, and LPS/ATP+10 μM compound).

[2] = system: primary bone marrow-derived macrophages (BMDMs); test: NAD+/NADH measurement in macrophages after LPS/ATP; assay type: cell-based, C57BL/6 mouse; conditions: LPS/ATP + 1, 5, 10 μM compound
Protocol: as §1, with “ratio was” for “ratio were”
FIGS. 6 to 10 show NAD^+/NADH ratio changes in the macrophage when treated with compounds 6, 16, 17, and 27 respectively (in order from left in the figure: Untreatment, LPS/ATP, LPS/ATP+1 μM compound, LPS/ATP+5 μM compound, and LPS/ATP+10 μM).

[3] = system: primary bone marrow-derived macrophages (BMDMs); test: Mitochondrial reactive oxygen species measurement (MitoSox, FACS); assay type: cell-based, C57BL/6 mouse; conditions: LPS/ATP + 1, 5, 10 μM compound
Protocol: The primary bone marrow-derived macrophages (BMDMs) isolated from C57BL/6 mouse were incubated in DMEM medium involving macrophage colony-stimulating factor (M-CSF; R&D Systems, 416-ML) during 3 to 5 days. Isolated BMDMs were stained by 1 μM MitoSox (Molecular Probes M36008) for 15 min. After washing the cells into PBS and collecting the cells, mitochondrial reactive oxygen species was measured by FACS.
FIGS. 11 and 12 show mitochondrial reactive oxygen species changes in the macrophage when treated with compounds 6 and 27, respectively (in order from left in the figure: Untreatment, LPS/ATP, LPS/ATP+1 μM compound, LPS/ATP+5 μM compound, and LPS/ATP+10 μM compound).

[4] = system: primary bone marrow-derived macrophages (BMDMs); test: ATP measurement in LPS-activated macrophages; assay type: cell-based, C57BL/6 mouse; conditions: LPS + 1, 5, 10 μM compound
Protocol: The primary bone marrow-derived macrophages (BMDMs) isolated from C57BL/6 mouse were incubated in DMEM medium involving macrophage colony-stimulating factor (M-CSF; R&D Systems, 416-ML) during 3 to 5 days. ATP content in the cell was measured through using ATP colorimetric/fluorometric kit after activation of macrophages by treatment of 100 ng/mL LPS in DMEM medium including […]. All assays were performed according to the manufacturer's product manual.
FIGS. 13 to 17 show the measurement of ATP amounts in the macrophage when treated with Compounds 6, 16, 17, 22 and 27 respectively (in order from left in the figure: Untreatment, LPS/ATP, LPS/ATP+1 μM compound, LPS/ATP+5 μM compound, and LPS/ATP+10 μM compound).

[5] = system: primary bone marrow-derived macrophages (BMDMs); test: OCR (oxygen consumption rate) measurement, Seahorse XF24; assay type: cell-based, C57BL/6 mouse; conditions: macrophages after treatment of LPS and ATP
Protocol: The primary bone marrow-derived macrophages (BMDMs) isolated from C57BL/6 mouse were incubated in DMEM medium involving macrophage colony-stimulating factor (M-CSF; R&D Systems, 416-ML) during 3 to 5 days. OCR was measured using Seahorse XF24 Extracellular Flux Analyzer in isolated bone marrow-derived macrophages.

[6] = system: DSS-induced acute colitis mouse model; test: Efficacy in ulcerative colitis mouse model (DSS-induced acute colitis); assay type: in vivo, C57BL/6 female mouse; conditions: 5% DSS for 6 days
Protocol: DSS-induced acute colitis mouse model was prepared using 6-week-old C57BL/6 female mouse in the following method from Opal S M et al., Jama., 309(11):1154-1162(2013) and Hotchkiss R S et al., Journal of immunology., 176(9):5471-5477(2006).
The clinical score in colitis were measured daily for body weight, rectal bleeding, total bleeding loss, and fecal concentration during colitis induction.
For immunohistochemistry of tissue section, mouse spleen, lung and colon were fixed using 10% formalin and embedded in paraffin. Paraffin sections were cut to a thickness of 4 μm, and H&E(hematoxylin and eosin) staining was performed. The histopathological score was measured in accordance with the criteria described in Osuchowski M F, et al., Journal of Immunology, 177(3):1967-74(2006); and Liu W, et al., Cell Research, 25(6): 691-706(2015).
The sandwich ELISAs and MPO assay were performed according to conventional methods in this field. TNF-α, IL-6, IL-1β, IL-18 ELISA(sandwich ELISAs) were performed using BD OptEIA ELISA Kit and MPO assay was performed using MPO Activity assay kit(ab105136) of Abcam company.
The data obtained from independent experiment (means±SD) was analyzed by using two-tailed Student's t-test. The differences were considered significant in p<0.05. For survival comparison, the results were graphically described and analyzed according to kaplan-Meier survival analysis, that is, the product-limit method, using log-rank(Mantel-Cox) tests (Prism, version 5.0, GraphPad Software).

[7] = colon tissue homogenate, treated during 20 days
[8] = treated during 10 days, vs non-treated mouse

Chain of NQO1 (P15559 whole entry, species assumed): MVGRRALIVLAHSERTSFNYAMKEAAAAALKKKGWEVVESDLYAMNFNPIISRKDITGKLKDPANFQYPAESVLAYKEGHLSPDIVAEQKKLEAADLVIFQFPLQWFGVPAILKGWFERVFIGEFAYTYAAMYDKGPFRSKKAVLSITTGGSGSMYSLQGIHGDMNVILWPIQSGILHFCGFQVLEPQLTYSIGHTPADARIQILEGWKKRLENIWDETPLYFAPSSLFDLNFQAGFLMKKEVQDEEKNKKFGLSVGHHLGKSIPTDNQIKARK

CCn1c(=O)c2c(n1-c1ccccc1)-c1ccccc1C(=O)C2=O [Compound 7]
NQO1 Activity (NQO1; Compound 0.2 μM): 2246 nmol of reduced Cytochrome C/min/μg NQO1 Protein

CC(C)n1c(=O)c2c(n1-c1ccccc1)-c1ccccc1C(=O)C2=O [Compound 13]
NQO1 Activity (NQO1; Compound 0.2 μM): 2137 nmol of reduced Cytochrome C/min/μg NQO1 Protein

CC(C)c1nc2c([nH]1)C(=O)C(=O)c1ccccc1-2 [Compound 27]
NQO1 Activity (NQO1; Compound 0.2 μM): 2269 nmol of reduced Cytochrome C/min/μg NQO1 Protein | NAD+ production [1]: increased in dose-dependent manner | NAD+/NADH ratio [2]: increased in dose-dependent manner | mitochondrial reactive oxygen species amounts [3]: decreased in dose-dependent manner | ATP amounts [4]: increased in dose-dependent manner | overall mitochondrial OCR [5]: increased | MPO activity [6, 7]: decreased | cytokine expressions (TNF-α, IL-6, IL-1β and IL-18, ELISA) [6, 7]: decreased | expressions of sirtuin 1 and sirtuin 7 [6, 7]: significantly increased | histological finding of colon tissue (immunohistochemistry, histological score, H&E) ([6]; treated during 7 days, vs non-treated colon tissue): significantly improved than non-treated colon tissue | colitis clinic scores (body weight, stool consistency, bleeding combined) [6, 8]: significantly ameliorated compared with non-treated mouse | degree of body weight loss [6, 8]: significantly slower than non-treated mouse | survival rates ([6]; treated during 20 days, vs non-treated mouse): higher than non-treated mouse

COc1nn(-c2ccc(F)cc2)c2c1C(=O)C(=O)c1ccccc1-2 [Compound 19]
NQO1 Activity (NQO1; Compound 0.2 μM): 4303 nmol of reduced Cytochrome C/min/μg NQO1 Protein

O=C1C(=O)c2c(n(-c3ccccc3)[nH]c2=O)-c2ccccc21 [Compound 1]
NQO1 Activity (NQO1; Compound 5 μM): 180 nmol of reduced Cytochrome C/min/μg NQO1 Protein

COc1nn(C(C)C)c2c1C(=O)C(=O)c1ccccc1-2 [Compound 17]
NQO1 Activity (NQO1; Compound 0.2 μM): 5843 nmol of reduced Cytochrome C/min/μg NQO1 Protein | NAD+ production [1]: increased in dose-dependent manner | NAD+/NADH ratio [2]: increased in dose-dependent manner

Cn1c(=O)c2c(n1-c1ccccc1)-c1ccc(F)cc1C(=O)C2=O [Compound 21]
NQO1 Activity (NQO1; Compound 0.2 μM): 1426 nmol of reduced Cytochrome C/min/μg NQO1 Protein

CC(C)CCn1c(=O)c2c(n1-c1ccccc1)-c1ccccc1C(=O)C2=O [Compound 11]
NQO1 Activity (NQO1; Compound 0.2 μM): 2839 nmol of reduced Cytochrome C/min/μg NQO1 Protein

COc1cn(-c2ccccc2)c2c1C(=O)C(=O)c1cc([N+](=O)[O-])ccc1-2 [Compound 23]
NQO1 Activity (NQO1; Compound 0.2 μM): 456 nmol of reduced Cytochrome C/min/μg NQO1 Protein

CC(C)Cn1c(=O)c2c(n1-c1ccccc1)-c1ccccc1C(=O)C2=O [Compound 9]
NQO1 Activity (NQO1; Compound 0.2 μM): 2474 nmol of reduced Cytochrome C/min/μg NQO1 Protein

COc1nn(-c2ccc(C(F)(F)F)cc2)c2c1C(=O)C(=O)c1ccccc1-2 [Compound 18]
NQO1 Activity (NQO1; Compound 0.2 μM): 4232 nmol of reduced Cytochrome C/min/μg NQO1 Protein

CC(C)COc1nn(-c2ccccc2)c2c1C(=O)C(=O)c1ccccc1-2 [Compound 10]
NQO1 Activity (NQO1; Compound 0.2 μM): 3455 nmol of reduced Cytochrome C/min/μg NQO1 Protein

COc1cn(-c2ccccc2)c2c1C(=O)C(=O)c1cc(Br)ccc1-2 [Compound 25]
NQO1 Activity (NQO1; Compound 0.2 μM): 1676 nmol of reduced Cytochrome C/min/μg NQO1 Protein

CC(C)CCOc1nn(-c2ccccc2)c2c1C(=O)C(=O)c1ccccc1-2 [Compound 12]
NQO1 Activity (NQO1; Compound 0.2 μM): 2981 nmol of reduced Cytochrome C/min/μg NQO1 Protein

CC(C)Oc1nn(-c2ccccc2)c2c1C(=O)C(=O)c1ccccc1-2 [Compound 2]
NQO1 Activity (NQO1; Compound 0.2 μM): 3531 nmol of reduced Cytochrome C/min/μg NQO1 Protein

CCOc1nn(-c2ccccc2)c2c1C(=O)C(=O)c1ccccc1-2 [Compound 8]
NQO1 Activity (NQO1; Compound 0.2 μM): 3768 nmol of reduced Cytochrome C/min/μg NQO1 Protein

Cn1c2c(c(=O)n1-c1ccccc1)C(=O)C(=O)c1ccccc1-2 [Compound 20]
NQO1 Activity (NQO1; Compound 0.2 μM): 568 nmol of reduced Cytochrome C/min/μg NQO1 Protein

CC(C)n1c2c(c(=O)n1C)C(=O)C(=O)c1ccccc1-2 [Compound 16]
NQO1 Activity (NQO1; Compound 0.2 μM): 4441 nmol of reduced Cytochrome C/min/μg NQO1 Protein | NAD+ production [1]: increased in dose-dependent manner | NAD+/NADH ratio [2]: increased in dose-dependent manner

COc1nn(-c2ccccc2)c2c1C(=O)C(=O)c1cc(N)ccc1-2 [Compound 24]
NQO1 Activity (NQO1; Compound 0.2 μM): 4336 nmol of reduced Cytochrome C/min/μg NQO1 Protein

COc1nn(-c2ccccc2)c2c1C(=O)C(=O)c1cc(F)ccc1-2 [Compound 22]
NQO1 Activity (NQO1; Compound 0.2 μM): 6978 nmol of reduced Cytochrome C/min/μg NQO1 Protein | NAD+ production [1]: increased in dose-dependent manner | NAD+/NADH ratio [2]: increased in dose-dependent manner

CC(C)n1c(=O)c2c(n1C)-c1ccccc1C(=O)C2=O [Compound 3]
NQO1 Activity (NQO1; Compound 5 μM): 3066 nmol of reduced Cytochrome C/min/μg NQO1 Protein

Cn1c(=O)c2c(n1-c1ccccc1)-c1ccccc1C(=O)C2=O [Compound 5]
NQO1 Activity (NQO1; Compound 5 μM): 2602 nmol of reduced Cytochrome C/min/μg NQO1 Protein
